Reference: patent publication US9278942B2, “Non-steroidal compounds as androgen receptor modulators” (FLX Discoveries Oy, priority 2011, dated 2016)
Where two headings read alike, the source gives them in different places.

What was measured:
[1] = molecular target: T1, human AR (Homo sapiens, UniProt P10275); assay: Competitive AR binding assay against [3H]-R1881 in transiently transfected COS-1 cells; details: compound 13.4 μM, [3H]-R1881 1.34 nM, complete inhibition equals 100%; for inhibition at 13.4 µM: read-out: Inhibition of [3H]-R1881 binding at 1.34 nM ± S.D.
T1 construct: expressed in transfected cells; host or cells: COS-1
T1 sequence (P10275 1-920): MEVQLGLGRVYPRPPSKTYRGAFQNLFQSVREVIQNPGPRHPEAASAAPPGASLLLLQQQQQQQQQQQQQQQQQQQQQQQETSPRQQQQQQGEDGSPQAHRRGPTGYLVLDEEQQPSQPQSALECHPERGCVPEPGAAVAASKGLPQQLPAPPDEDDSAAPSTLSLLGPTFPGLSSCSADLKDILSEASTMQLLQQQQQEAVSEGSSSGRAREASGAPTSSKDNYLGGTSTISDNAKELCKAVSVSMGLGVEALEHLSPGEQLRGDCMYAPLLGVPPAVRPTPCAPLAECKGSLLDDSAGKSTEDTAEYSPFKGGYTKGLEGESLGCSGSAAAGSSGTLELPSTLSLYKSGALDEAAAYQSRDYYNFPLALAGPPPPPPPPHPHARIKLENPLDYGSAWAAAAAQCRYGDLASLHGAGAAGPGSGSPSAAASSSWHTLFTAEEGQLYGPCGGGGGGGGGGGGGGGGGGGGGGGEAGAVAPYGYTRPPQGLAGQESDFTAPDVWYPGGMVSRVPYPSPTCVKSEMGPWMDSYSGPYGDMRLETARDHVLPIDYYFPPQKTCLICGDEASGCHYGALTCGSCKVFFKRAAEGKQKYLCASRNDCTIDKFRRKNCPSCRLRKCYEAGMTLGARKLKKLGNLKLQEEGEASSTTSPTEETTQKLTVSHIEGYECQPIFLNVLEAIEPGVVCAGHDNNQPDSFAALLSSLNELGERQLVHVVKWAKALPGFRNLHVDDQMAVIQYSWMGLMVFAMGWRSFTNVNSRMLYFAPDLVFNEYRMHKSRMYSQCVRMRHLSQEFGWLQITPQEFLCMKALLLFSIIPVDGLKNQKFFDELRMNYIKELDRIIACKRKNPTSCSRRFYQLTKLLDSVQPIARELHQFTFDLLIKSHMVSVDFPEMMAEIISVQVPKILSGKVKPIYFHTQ
Description: Competitive AR Binding Assay.
AR binding was measured by a competitive assay against [^3H]-R1881 (PerkinElmer) in transiently transfected COS-1 cells. One day before transfection, COS-1 cells were seeded into 2 ml of DMEM (Dulbecco's modified Eagle medium, Gipco) with 10% dextran-charcoal-treated fetal bovine serum and 0.25% (vol/vol) Penicillin-Streptomysin (Euroclone) at a density of 140×10^3 cells/well. After medium change to DMEM 2.5% FBS, the cells were transfected for 24 hours with 10 ng/well of human AR expression vector pSG5 hAR by using the TransIT method (Micrus Bio TransIT LT1, Transfection Reagent). After 36 hours, the cells where treated with tested compounds using 10000 fold molarities compared to labelled R1881 (1.34 nM). After 2 hours of incubation at 37° C., the medium was removed. The cells were removed from the wells to 150 μl of 1× phosphate buffered saline (PBS), transferred to Eppendorf tubes and centrifuged at 4° C. using 4000×g for 5 min, and then washed twice with 150 μl of PBS. The cell pellets were dissolved to 50 μl of 0.5M NaOH and incubated for 15 min at 56° C., after which the samples (three replicates for each sample compound) were transferred to liquid twinkle tubes with 3 ml of OptiPhase HiSafe 3 twinkle solution (PerkinElmer) and radioactivity of AR-bound [^3H]-R1881 determined. The results were measured with LKB WALLAC 1214 racbeta equipment. The ability of test compounds to bind AR is reported as reduction in bound radioactivity obtained with 1.34 nM [^3H]-R1881.
The results (% inhibition) were calculated as: % inhibition=100−[100×(averagecompound/average[3H]-R1881)].

[2] = molecular target: T1, human AR; assay: AR antagonism assay: inhibition of transcriptional activation of AR (Probasin-luc reporter, COS-1 cells); format: cell-based; details: compound 10.0 μM, relative luciferase response: 100% for testosterone (no antiandrogenic effect), 0% for complete antagonism; for remaining activity at 10 µM: COS-1, 18 h, read-out: AR antagonism against 100 nM testosterone ± S.D.
Description: Determination of the Antiandrogen Activity.
Testosterone was bought from Sigma Chemical Co. (St. Louis, Mo.) and hydroxyflutamide from Chemos GmbH. One day before transfection, COS-1 cells (from ATCC) were seeded into 1 ml of DMEM (Dulbecco's modified Eagle medium, Gibco) with 10% dextran-charcoal-treated fetal bovine serum and 0.25% (vol/vol) Penicillin-Streptomycin (Euroclone) at a density of 70×10^3 cells/well. After medium change to DMEM 2.5% FBS, the cells were transfected for 24 hours with 10 ng/well of human AR expression vector pSG5-hAR, 100 ng/well of reporter plasmid Probasin-luc, and 10 ng/well of control plasmid pCMV-β-gal by using the TransIT method (Micrus Bio TransIT LT1, Transfection Reagent). After the transfection, the cells received treatment of test compounds giving final concentration of 10 μM for each compound. In the antagonist test the wells were also treated with 100 nM final concentration of testosterone. After 18 hours, the cells were washed, lysed and assayed for luciferase and normalization for β-galactosidase activities and protein concentrations. The cells were washed with 100 μl of cold phosphate buffered saline (PBS) and lysed with 35 μl 1× Reporter lysis Buffer (Promega) and frozen (−70° C.) for 30 minutes. Cell lysates were placed in 1.5-ml propylene tubes and centrifuged at 13200×g for 5 minutes at room temperature. For β-galactosidase assay 10 μl of supernatant from each cell extract was transferred to a 96-well plate (96 well Elisa Microplates, PS, Microcon) and incubated for 10 minutes at 37° C. with 65 μl of reaction mixture consisting 0.76 μl 100×Mg-buffer, 12.5 μl ONPG (4 mg/ml), and 54.3 μl of sodium-phosphate buffer (pH 7). The reaction was stopped with treatment of 125 μl Na2CO3. For luciferase assay 10 μl of the supernatant was transferred to a 96-well plate (Greiner Microlon lumitrac 200) and treated with 30 μl of luciferase assay substrate solution (Promega Luciferase Assay System E1501). For the study of protein concentrations 5 μl of the supernatant was transferred to a 96-well plate (Elisa Microplates, PS, Microcon) and mixed with 200 μl of Bio-rad protein assay reagent. The luciferase activities were measured with Thermo Luminoscan Ascent scanner and the protein concentrations and β-galactosidase activities with Thermo Labsystem Multiscan Ex scanner. Also blank and control samples were measured. During the maintenance, transfection, and treatment with tested compounds the cells were incubated in humidified atmosphere with 5% carbon dioxide at 37° C.

Compound | AR antagonism against 100 nM testosterone ± S.D. [2] [%] | inhibition at 13.4 µM ([1]; Table 2) [%] | remaining activity at 10 µM [2] [%] | Inhibition of [3H]-R1881 binding at 1.34 nM ± S.D. ([1]; Table 3) [%] | further results
N#Cc1cccc(C2=NOC3CCCCC23)c1C(F)(F)F (single isomer, unassigned) [Example 94a, 3-(3a,4,5,6,7,7a-Hexahydro-benzo[d]isoxazol-3-yl)-2-trifluoromethyl-benzonitrile] | 17.8 ± 3.9 | – | – | – | inhibition at 13.4 µM ([1]; Table 3): 97.4 ± 0.4%
Fc1ccc(C2=NOC3CCCCC23)cc1C(F)(F)F (centres unmarked) [Example 35ab, 3-(4-Fluoro-3-trifluoromethyl-phenyl)-3a,4,5,6,7,7a-hexahydro-benzo-[d]-isoxazole] | – | 88.5 ± 4.2 | 53.4 ± 5.4 | – | –
Fc1ccc(C2=NOC3CCCCCC23)c(C(F)(F)F)c1 (centres unmarked) [Example 40a, 3-(4-Fluoro-2-trifluoromethyl-phenyl)-4,5,6,7,8,8a-hexahydro-3aH-cyclohepta[d]isoxazole] | – | 88.8 ± 3.1 | 28.8 ± 2 | – | –
Fc1ccc(C2=NOC3CCCC23)c(C(F)(F)F)c1 (centres unmarked) [Example 20a, 3-(4-Fluoro-2-trifluoromethyl-phenyl)-4,5,6,6a-tetrahydro-3aH-cyclopenta[d]isoxazole] | – | – | 23.2 ± 0.5 | – | inhibition at 13.4 µM ([1]; Table 3): 89.3 ± 3.8%
N#Cc1ccc(C2=NOC3CCCCCC23)cc1C(F)(F)F (centres unmarked) [Example 90ab, 4-(4,5,6,7,8,8a-Hexahydro-3aH-cyclohepta[d]isoxazol-3-yl)-2-trifluoromethyl-benzonitrile] | – | 98.7 ± 0.6 | 12.6 ± 0.7 | – | –
Fc1ccc(C2=NOC3CCCC23)cc1C(F)(F)F (centres unmarked) [Example 19ab, 3-(4-Fluoro-3-trifluoromethyl-phenyl)-4,5,6,6a-tetrahydro-3aH-cyclopenta[d]-isoxazole] | – | 84.6 ± 4.9 | 54.6 ± 2.3 | – | –
Fc1ccc(C2=NOC3CCCCC23)c(C(F)(F)F)c1 (centres unmarked) [Example 36b, 3-(4-Fluoro-2-trifluoromethyl-phenyl)-3a,4,5,6,7,7a-hexahydro-benzo[d]-isoxazole] | 30.0 ± 6.1 | – | – | – | Inhibition of [3H]-R1881 binding at 1.34 nM ± S.D. ([1]; Table 2): 87.7 ± 3.0%
Fc1ccc(C2=NOC3CCCCCCC23)c(C(F)(F)F)c1 (centres unmarked) [Example 44b, 3-(4-Fluoro-2-trifluoromethyl-phenyl)-3a,4,5,6,7,8,9,9a-octahydro-cycloocta[d]isoxazole] | 35.6 ± 7.8 | – | – | 85.2 ± 3.8 | –
N#Cc1cccc(C2=NOC3CCCCCC23)c1C(F)(F)F (centres unmarked) [Example 95b, 3-(4,5,6,7,8,8a-Hexahydro-3aH-cyclohepta[d]isoxazol-3-yl)-2-trifluoromethyl-benzonitrile] | 19.2 ± 2.9 | – | – | 98.1 ± 0.3 | –
N#Cc1cccc(C2=NOC3CCCCC23)c1C(F)(F)F (single isomer, unassigned) [Example 94b, 3-(3a,4,5,6,7,7a-Hexahydro-benzo[d]isoxazol-3-yl)-2-trifluoromethyl-benzonitrile] | 5.4 ± 1.7 | – | – | 97.6 ± 0.2 | –
N#Cc1ccc(C2=NOC3CCCCCC23)c(C(F)(F)F)c1 (centres unmarked) [Example 91a, 4-(4,5,6,7,8,8a-Hexahydro-3aH-cyclohepta[d]isoxazol-3-yl)-3-trifluoromethyl benzonitrile] | – | 85.4 ± 1.5 | 29.8 ± 3.6 | – | –
Fc1ccc(C2=NOC3CCCC23)c(C(F)(F)F)c1 (centres unmarked) [Example 20b, 3-(4-Fluoro-2-trifluoromethyl-phenyl)-4,5,6,6a-tetrahydro-3aH-cyclopenta[d]isoxazole] | 37.4 ± 7.3 | – | – | 85.3 ± 2.8 | –
N#Cc1ccc(C2=NOC3CCCCCCC23)c(C(F)(F)F)c1 (single isomer, unassigned) [Example 93b, 4-(3a,4,5,6,7,8,9,9a-Octahydro-cycloocta[d]isoxazol-3-yl)-3-trifluoromethyl-benzonitrile] | 65.5 ± 9.0 | – | – | 76.0 ± 4.8 | –
